In patent publication US6476047B2, “Anellated dihydropyridines for the treatment of chronic pain” (Boehringer Ingelheim Pharma KG, priority 2000, dated 2002):
Where a name gives a salt, the structure may show the parent alone.

Legend:
[1] = biological target: T1, N-type calcium channels in HEK-293 cell (Homo sapiens, UniProt Q00975); test: Test A: Calcium imaging, inhibition of N-type calcium channels (FLUO-3, 80 mM K+ depolarisation); type: cell-based; conditions: FLUO-3 charged recombinant HEK-293 cells, potassium depolarisation (80 mM K+)
T1 construct: expressed in transfected cells; host or cells: HEK-293 (clone HEK-293-N26)
T1 sequence (Q00975 whole entry): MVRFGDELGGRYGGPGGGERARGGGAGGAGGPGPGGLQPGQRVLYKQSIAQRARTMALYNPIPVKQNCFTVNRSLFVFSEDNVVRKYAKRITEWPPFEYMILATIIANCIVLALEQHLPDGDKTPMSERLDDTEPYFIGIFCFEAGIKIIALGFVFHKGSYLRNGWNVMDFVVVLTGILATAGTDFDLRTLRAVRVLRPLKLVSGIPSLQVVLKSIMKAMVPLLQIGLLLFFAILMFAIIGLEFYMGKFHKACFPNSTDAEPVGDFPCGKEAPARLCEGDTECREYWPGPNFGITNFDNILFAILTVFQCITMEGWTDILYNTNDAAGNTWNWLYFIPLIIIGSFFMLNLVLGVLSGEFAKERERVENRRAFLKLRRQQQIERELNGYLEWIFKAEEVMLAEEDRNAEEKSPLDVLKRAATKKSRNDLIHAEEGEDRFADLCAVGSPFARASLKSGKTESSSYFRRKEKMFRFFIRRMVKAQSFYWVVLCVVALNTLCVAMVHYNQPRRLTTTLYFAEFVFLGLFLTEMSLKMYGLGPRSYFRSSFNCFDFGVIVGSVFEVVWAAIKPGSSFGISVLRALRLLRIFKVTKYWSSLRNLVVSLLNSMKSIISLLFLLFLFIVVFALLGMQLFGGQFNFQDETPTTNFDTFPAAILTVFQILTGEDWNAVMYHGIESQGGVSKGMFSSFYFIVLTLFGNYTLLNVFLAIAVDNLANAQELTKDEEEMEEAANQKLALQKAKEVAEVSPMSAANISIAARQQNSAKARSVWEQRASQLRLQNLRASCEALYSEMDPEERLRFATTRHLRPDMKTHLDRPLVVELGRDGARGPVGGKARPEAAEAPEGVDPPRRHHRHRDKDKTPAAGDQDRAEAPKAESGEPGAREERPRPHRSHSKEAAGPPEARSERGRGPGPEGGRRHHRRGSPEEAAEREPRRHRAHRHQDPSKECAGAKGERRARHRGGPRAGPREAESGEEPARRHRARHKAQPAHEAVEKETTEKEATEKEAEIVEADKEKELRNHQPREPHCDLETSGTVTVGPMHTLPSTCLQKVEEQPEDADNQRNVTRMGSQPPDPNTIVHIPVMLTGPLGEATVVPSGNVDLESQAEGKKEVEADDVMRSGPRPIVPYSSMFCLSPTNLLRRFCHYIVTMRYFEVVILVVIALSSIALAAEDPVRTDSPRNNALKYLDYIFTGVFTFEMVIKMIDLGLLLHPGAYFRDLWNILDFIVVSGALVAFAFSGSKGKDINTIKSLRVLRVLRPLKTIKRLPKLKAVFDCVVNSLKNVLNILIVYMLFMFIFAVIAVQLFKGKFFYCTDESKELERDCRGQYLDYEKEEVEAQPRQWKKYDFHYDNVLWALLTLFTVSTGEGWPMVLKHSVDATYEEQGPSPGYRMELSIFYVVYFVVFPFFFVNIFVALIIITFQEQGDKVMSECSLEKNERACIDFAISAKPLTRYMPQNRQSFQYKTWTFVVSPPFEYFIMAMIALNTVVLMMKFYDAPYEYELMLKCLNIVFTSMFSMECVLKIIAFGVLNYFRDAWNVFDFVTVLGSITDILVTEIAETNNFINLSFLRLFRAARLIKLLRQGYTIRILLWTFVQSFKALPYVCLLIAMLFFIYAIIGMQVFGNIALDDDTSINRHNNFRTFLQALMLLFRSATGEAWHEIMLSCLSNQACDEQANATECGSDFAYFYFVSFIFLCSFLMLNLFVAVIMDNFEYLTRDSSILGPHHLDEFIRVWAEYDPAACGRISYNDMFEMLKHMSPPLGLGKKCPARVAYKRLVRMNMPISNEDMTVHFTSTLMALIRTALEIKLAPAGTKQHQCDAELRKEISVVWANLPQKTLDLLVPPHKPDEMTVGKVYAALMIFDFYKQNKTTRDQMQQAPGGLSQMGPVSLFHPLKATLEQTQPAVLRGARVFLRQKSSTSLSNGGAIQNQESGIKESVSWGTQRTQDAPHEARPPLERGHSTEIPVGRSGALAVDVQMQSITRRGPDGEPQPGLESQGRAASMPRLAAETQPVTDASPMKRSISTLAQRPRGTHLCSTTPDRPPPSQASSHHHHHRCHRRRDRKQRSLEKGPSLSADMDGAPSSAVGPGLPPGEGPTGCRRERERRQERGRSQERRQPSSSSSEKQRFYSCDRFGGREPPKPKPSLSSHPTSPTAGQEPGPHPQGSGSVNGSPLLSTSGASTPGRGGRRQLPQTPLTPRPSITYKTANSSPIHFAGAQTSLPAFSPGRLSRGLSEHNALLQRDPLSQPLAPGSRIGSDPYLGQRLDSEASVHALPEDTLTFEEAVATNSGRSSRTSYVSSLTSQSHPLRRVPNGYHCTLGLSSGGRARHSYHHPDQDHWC
T1 sequence (P54289 25-956 partner limits assumed): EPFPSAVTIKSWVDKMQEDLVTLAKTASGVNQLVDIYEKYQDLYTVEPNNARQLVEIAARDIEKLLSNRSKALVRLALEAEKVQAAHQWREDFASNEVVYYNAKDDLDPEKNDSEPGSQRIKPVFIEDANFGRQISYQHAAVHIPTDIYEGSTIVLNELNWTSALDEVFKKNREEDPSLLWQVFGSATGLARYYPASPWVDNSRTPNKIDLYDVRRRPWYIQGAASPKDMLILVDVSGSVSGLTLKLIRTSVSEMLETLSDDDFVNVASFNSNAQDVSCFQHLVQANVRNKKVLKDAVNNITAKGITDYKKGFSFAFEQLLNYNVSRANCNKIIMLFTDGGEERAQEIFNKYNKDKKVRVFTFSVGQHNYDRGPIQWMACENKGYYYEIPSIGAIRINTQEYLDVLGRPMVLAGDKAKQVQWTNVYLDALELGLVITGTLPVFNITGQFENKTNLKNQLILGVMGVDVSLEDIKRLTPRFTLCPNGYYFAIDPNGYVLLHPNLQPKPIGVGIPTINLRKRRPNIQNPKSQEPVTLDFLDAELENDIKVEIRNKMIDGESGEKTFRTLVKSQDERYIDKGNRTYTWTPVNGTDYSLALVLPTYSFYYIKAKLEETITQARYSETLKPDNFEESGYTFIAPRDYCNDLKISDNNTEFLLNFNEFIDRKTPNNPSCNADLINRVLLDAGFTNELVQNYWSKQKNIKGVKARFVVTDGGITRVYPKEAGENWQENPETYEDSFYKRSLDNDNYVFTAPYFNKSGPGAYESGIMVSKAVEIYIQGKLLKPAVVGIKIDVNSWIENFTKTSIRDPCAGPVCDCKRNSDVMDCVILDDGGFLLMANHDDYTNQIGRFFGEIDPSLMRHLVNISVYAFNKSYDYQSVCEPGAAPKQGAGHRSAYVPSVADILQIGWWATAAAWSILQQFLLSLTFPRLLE
T1 sequence (P54289 957-1103 partner limits assumed): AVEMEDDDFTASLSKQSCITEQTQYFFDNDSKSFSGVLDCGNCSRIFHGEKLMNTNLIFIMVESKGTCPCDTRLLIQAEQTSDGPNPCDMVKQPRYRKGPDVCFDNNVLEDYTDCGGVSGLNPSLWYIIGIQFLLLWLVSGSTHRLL
T1 sequence (P54284 whole entry partner): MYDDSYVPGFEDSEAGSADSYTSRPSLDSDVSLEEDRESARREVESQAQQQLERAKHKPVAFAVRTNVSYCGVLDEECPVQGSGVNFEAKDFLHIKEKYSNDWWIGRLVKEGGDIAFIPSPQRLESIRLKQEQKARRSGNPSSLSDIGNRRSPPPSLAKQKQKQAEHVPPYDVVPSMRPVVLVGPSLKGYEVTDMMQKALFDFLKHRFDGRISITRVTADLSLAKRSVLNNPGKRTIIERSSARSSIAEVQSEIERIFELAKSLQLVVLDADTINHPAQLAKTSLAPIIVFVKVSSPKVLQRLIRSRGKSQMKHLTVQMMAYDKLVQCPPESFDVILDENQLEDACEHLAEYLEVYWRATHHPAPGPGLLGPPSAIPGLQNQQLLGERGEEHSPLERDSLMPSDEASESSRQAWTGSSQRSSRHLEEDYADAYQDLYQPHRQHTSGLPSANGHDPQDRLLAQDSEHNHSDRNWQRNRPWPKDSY
Text: (§1) The concentration of the half-maximum inhibition (IC50-values) for the selected substances is in the submicro- to micromolar range. Independently of this optical method of measurement, the inhibitory effect on the N-type calcium channels was confirmed independently, by an electrophysiological method, using the patch-clamp technique on the same type of cells (Test B).
Inhibition of N-type calcium channels in HEK-293 cell

[2] = biological target: T2, N-type calcium channel in HEK-293-N26 cells (Homo sapiens, UniProt Q00975); test: Test B: Patch-clamp tests, N-type calcium channel blockade; type: cell-based
T2 construct: expressed in transfected cells; host or cells: HEK-293 (clone HEK-293-N26)
T2 sequence (Q00975 whole entry): as the sequence (Q00975 whole entry) above
T2 sequence (P54289 25-956 partner limits assumed): as the sequence (P54289 25-956 partner limits assumed) above
T2 sequence (P54289 957-1103 partner limits assumed): as the sequence (P54289 957-1103 partner limits assumed) above
T2 sequence (P54284 whole entry partner): as the sequence (P54284 whole entry partner) above
Text: as §1
Test B: Patch-clamp Tests
N-type calcium channel blockade in HEK-293-N26 cells

[3] = test system: rats; test: Test C: Formalin paw test; type: in vivo; conditions: po, rat, p.o., read-out: ED50 values Test C, inhibition of flinching
Experimental: Formalin Paw Test (Test C)
Male rats (Chbb: THOM) weighing 250-300 grams are used. 20 μl of a 2% formaldehyde solution is injected into the plantar region of the right hind paw. Immediately afterwards, the number of flinches (spasms of the affected hind paw) and the time spent licking the affected paw are recorded. After 5 minutes in each case the values are collated into epochs. Time-activity curves for flinches and licking are plotted from the epoch values. Typically, two phases of the formalin activity (flinches, licking) are observed. A first phase of 0-10 minutes and a second phase of 10-60 minutes. Between the two phases the number of flinches and the duration of licking fall towards 0 (interphase). The areas under the curve for the first phase and for the second phase are determined from the timeactivity curves. Usually 5 animals are used in each case for the control, placebo and dose of active substance. The results of the doses of active substance are compared with those of the control and ED50 values are calculated. ED50 is the dose at which the control values are inhibited by 50%.
Test C: Formalin-paw Test (Rat)
Inhibition of flinching (ED50 values in mg/kg; p.o.)

[4] = test system: rats; test: Test D: Chronic Constriction Injury (CCI, Bennett model), mechanohyperalgesia; type: in vivo; conditions: po, rat
Text: Chronic Constriction Injury (CCI, Bennett Model) (Test D)
The principle of the method is producing hyperalgesia and allodynia in the plantar region (the sole of the hind paw). Sprague-Dawley rats (Harlan) weighing 250-350 grams are used.
Under anaesthetic, four loose ligatures are placed on the sciatic nerve of the left hind paw at intervals of 2.5 mm in such a way that the perinerval circulation is affected but not prevented. This leads to extravasation and oedema, resulting in neuropathy of the nerves which innervate the planter region. The right hind paw is treated in the same way without the ligatures. Control tests for allodynia and/or hyperalgesia are carried out without the administration of any substance before and 8-10 days after the operation. Then substance tests are carried out at intervals of 2-3 days. The effects of the substance on the various parameters and ED50 values are calculated (=doses which inhibit by 50% the allodynic or hyperalgesic effects of the stimulation).
Mechano-hyperalgesia (Pin Prick)
The animals are placed in cages with a wire mesh base. Using a blunt needle (e.g. a large safety pin) the skin of the sole of the paw (Plantar-region) is touched so that an indentation is only just produced. Similarly, the sole of the paw is pinched gently with forceps. […] The number and duration of positive reactions of the operated and control paws are measured. […]

Row | Compound | melting point | IC50 [1] | IC50 [2] | other results
1 | COc1cc2c(cc1OC)C(C)(C)CN=C2c1cccc(Oc2ccccc2)c1 (as salt: salt) [Example 15] | 181 °C | – | – | –
2 | COc1cc2c(cc1OC)C(C)(C)CN=C2c1ccccc1Oc1cc(C(F)(F)F)cc(C(F)(F)F)c1 [Example 8] | – | 3.16 µM | 1.7 µM | –
3 | CCCCCCOc1ccc(C2=NCC(C)(C)c3ccccc32)cc1 [Example 11] | – | 3.26 µM | – | –
4 | CC1(C)CN=C(c2ccccc2Oc2cc(C(F)(F)F)cc(C(F)(F)F)c2)c2ccccc21 (as salt: hydrochloride) [Example 9, 3,4-dihydro-4,4-dimethyl-1-[2-(3,5-ditrifluoromethyl)phenoxy]phenyl-isoquinoline hydrochloride] | 211 to 212 °C | – | – | –
5 | COc1cc2c(cc1OC)C(C)(C)CN=C2c1cccc(Oc2cc(C(F)(F)F)cc(C(F)(F)F)c2)c1 (as salt: salt) [Example 14] | 210 to 211 °C | – | – | –
6 | CCCCCCOc1ccc(C2=NCCc3cc(OC)c(OC)cc32)cc1 [Example 2] | – | 1.2 µM | 1.09 µM | –
7 | COc1cc2c(cc1OC)C(C)(C)CN=C2c1ccc(Oc2cc(C(F)(F)F)cc(C(F)(F)F)c2)cc1 (as salt: salt) [Example 7] | 197 °C | – | – | –
8 | COc1ccc2c(c1)C(C)(C)CN=C2c1ccccc1Oc1cc(C(F)(F)F)cc(C(F)(F)F)c1 (as salt: salt) [Example 12] | 122 to 123 °C | – | – | –
9 | COc1cc2c(cc1OC)C(C)(C)CN=C2c1ccccc1Oc1cc(C(F)(F)F)cc(C(F)(F)F)c1 (as salt: salt) [Example 8] | 172 to 173 °C | – | – | –
10 | COc1ccc2c(c1)C(C)(C)CN=C2c1ccccc1Oc1cc(C(F)(F)F)cc(C(F)(F)F)c1 [Example 12] | – | 5.54 µM | 1.6 µM | –
11 | CCCCCCOc1ccc(C2=NCCc3cc(OC)c(OC)cc32)cc1 (as salt: salt) [Example 2] | 172 °C | – | – | –
12 | CC1(C)CN=C(c2ccccc2Oc2cc(C(F)(F)F)cc(C(F)(F)F)c2)c2ccccc21 [Example 9, 3,4-dihydro-4,4-dimethyl-1-[2-(3,5-ditrifluoromethyl)phenoxy]phenyl-isoquinoline hydrochloride] | – | 3.98 µM | 0.26 µM | ED50 [3]: 10 mg/kg
13 | COc1cc2c(cc1OC)C(C)(C)CN=C2c1cccc(Oc2ccccc2)c1 [Example 15] | – | 1.62 µM | – | –
14 | COc1cc2c(cc1OC)C(C)(C)CN=C2c1cccc(Oc2cc(C(F)(F)F)cc(C(F)(F)F)c2)c1 [Example 14] | – | 1.61 µM | – | –
15 | CCCCCCOc1ccc(C2=NCC(C)(C)c3ccccc32)cc1 (as salt: salt) [Example 11] | 186 to 187 °C | – | – | –

The next lines start with results.

Row | melting point | IC50 [1] | IC50 [2] | Compound | other results
16 | – | 1.95 µM | – | COc1cc2c(cc1OC)C(c1ccc(Oc3cc(C(F)(F)F)cc(C(F)(F)F)c3)cc1)=NCC2 [Example 10] | –
17 | 195 to 198 °C | – | – | COc1cc2c(cc1OC)C(C)(C)CN=C2c1ccc(Oc2ccc(C(F)(F)F)cc2)cc1 (as salt: salt) [Example 5] | –
18 | – | 0.94 µM | 1.12 µM | COc1cc2c(cc1OC)C(c1ccc(Oc3ccc(C(F)(F)F)cc3)cc1)=NCC2 [Example 6] | –
19 | – | – | 1.22 µM | CC1(C)CN=C(c2ccc(Oc3cc(C(F)(F)F)cc(C(F)(F)F)c3)cc2)c2ccccc21 [Example 16] | –
20 | 217 to 218 °C | – | – | CC1(C)CN=C(c2ccc(Oc3cc(C(F)(F)F)cc(C(F)(F)F)c3)cc2)c2ccccc21 (as salt: salt) [Example 16] | –
21 | 141 to 142 °C | 1.83 µM | – | COc1cc2c(cc1OC)C(C)(C)CN=C2c1ccc(Oc2ccccc2)cc1 [Example 4] | –
22 | – | 0.82 µM | 1.33 µM | COc1cc2c(cc1OC)C(C)(C)CN=C2c1ccc(Oc2ccc(C(F)(F)F)cc2)cc1 [Example 5] | ED50 [3]: 15 mg/kg; ED50 [4]: 10 mg/kg
23 | – | 1.26 µM | 1 µM | COc1cc2c(cc1OC)C(C)(C)CN=C2c1ccc(Oc2cc(C(F)(F)F)cc(C(F)(F)F)c2)cc1 [Example 7] | –
24 | 209 to 210 °C | – | – | COc1cc2c(cc1OC)C(c1ccc(Oc3ccccc3)cc1)=NCC2 (as salt: salt) [Example 1] | –
25 | 215 °C | – | – | COc1cc2c(cc1OC)C(c1ccc(Oc3cc(C(F)(F)F)cc(C(F)(F)F)c3)cc1)=NCC2 (as salt: salt) [Example 10] | –
26 | – | 1.94 µM | – | COc1cc2c(c(OC)c1OC)CCN=C2c1ccc(Oc2ccccc2)cc1 [Example 3] | –
27 | 218 °C | – | – | COc1cc2c(cc1OC)C(c1ccc(Oc3ccc(C(F)(F)F)cc3)cc1)=NCC2 (as salt: salt) [Example 6] | –
28 | 234 to 235 °C | – | – | FC(F)(F)c1ccc(Oc2ccc(C3=NCCc4ccccc43)cc2)cc1 (as salt: salt) [Example 17] | –
29 | – | 1.86 µM | 1.8 µM | COc1cc2c(cc1OC)C(c1ccc(Oc3ccccc3)cc1)=NCC2 [Example 1] | ED50 [3]: 10 mg/kg
30 | 173 to 175 °C | – | – | COc1cc2c(c(OC)c1OC)CCN=C2c1ccc(Oc2ccccc2)cc1 (as salt: salt) [Example 3] | –
31 | – | – | 8.2 µM | FC(F)(F)c1ccc(Oc2ccc(C3=NCCc4ccccc43)cc2)cc1 [Example 17] | –
